Measured values reported in PMC6207618, “The GbsR Family of Transcriptional Regulators: Functional Characterization of the OpuAR Repressor” (Frontiers in Microbiology, 2018).
Entries after “also recorded” stand apart in the source; their conditions may differ.

Test system: B. infantis OpuA transporter
Test: Osmostress protection growth assay, B. infantis opuA operon expressed in B. subtilis strain CAB2
Format: cell-based, Bacillus infantis
Settings: for Osmostress protection (growth yield OD578): B. subtilis CAB2, SMM with 1.2 M NaCl, 1 mM osmostress protectant, 18 h, 37°C; for Substrate of / import via the B. infantis OpuA transporter: inferred from osmostress protection of B. subtilis CAB2, 1.2 M NaCl, 1 mM
Experimental: Bacterial strains were propagated in Luria–Bertani (LB) liquid media at 37°C or plated on LB agar plates. The B. infantis strain NRRL B-14911 was grown in MOPS-buffered basal medium [50 mM MOPS (pH 7.5), 50 mM MgSO4, 10 mM KCl, 10 mM CaCl2, 190 mM NH4Cl, 0.33 mM K2HPO4, 0.1 mM FeSO4] supplemented with 0.5% glucose (wt/vol) as a carbon source, 0.4% casamino acids (wt/vol), 5 ml l^-1 vitamin solution A (7.8 mg l^-1 biotin, 15.6 mg l^-1 nicotinic acid, and 15.6 mg l^-1 lipoic acid; pH adjusted to 7.5), and 5 ml l^-1 vitamin solution B (15.6 mg l^-1 pantothenic acid, 15.6 mg l^-1 pyridoxine-HCl, 15.6 mg l^-1 thiamine, 15.6 mg l^-1 p-aminobenzoic acid, and 0.32 mg l^-1 cobalamin) ([Gonzalez et al., 1997]). In main cultures used for osmostress protection assays, casamino acids were left out from the growth medium. The osmolarity of growth media was adjusted by the addition of NaCl from a 5 M NaCl stock solution. If desired, osmostress protectants were added to the medium of B. infantis NRRL B-14911 cultures at a final concentration of 1 mM. For growth experiments, liquid cultures of B. infantis NRRL B-14911 were grown in 100-ml Erlenmeyer flasks containing 20-ml of medium in a water bath set to 37°C with vigorous shaking (set to 220 rpm). Pre-cultures of strains were propagated to mid-exponential growth phase in basal medium (with 0.4% casamino acids) and were then used to inoculate fresh basal medium (without casamino acids) to an optical density at 578 nm (OD578) of 0.1. Liquid cultures of B. subtilis strains were grown at 37°C in Spizizen’s minimal medium (SMM) ([Harwood and Archibald, 1990]) with 0.5% glucose as carbon source and a solution of trace elements ([Harwood and Cutting, 1990]). L-Tryptophan (20 mg l^-1) and L-phenylalanine (18 mg l^-1) were added to SMM-derived growth media to satisfy the auxotrophic needs of the B. subtilis strain JH642 (trpC2 pheA1) ([Smith et al., 2014]) and its derivatives (Supplementary Table S1). Cultures (20-ml in 100-ml Erlenmeyer flasks) of B. subtilis strains were inoculated from exponentially growing pre-cultures in SMM to an OD578 of 0.1 and were incubated in a shaking water bath (set to 220 rpm) at 37°C. If needed, the osmolarity of the growth medium was increased by the addition of NaCl (from 5 M stock solutions prepared in H2O). Compatible solutes were filter sterilized and added to the growth medium of B. subtilis strains from 100 mM stock solutions to a final concentration of 1 mM unless otherwise explicitly stated in the text.
For the heterologous expression of the B. infantis NRRL B-14911 opuA operon (opuAA-opuAB-opuAC) in B. subtilis, a 3826-bp DNA fragment including the coding region of the opuA operon and the adjacent opuAR regulatory gene was generated by PCR using primers CA3-opuARA fwd and CA3-opuARA rev (Supplementary Table S2). […] Plasmid pX and its recombinant derivatives allow the stable insertion of genes into the B. subtilis chromosome as a single copy into the non-essential amyE locus via a double homologous recombination event via amyE sequences present on both the plasmid and the chromosome ([Kim et al., 1996]). Insertion of plasmid pX, or its recombinant derivatives, into the B. subtilis chromosome at the amyE gene can be selected for on agar plates containing the antibiotic chloramphenicol (final concentration: 5 μg ml^-1) and the subsequently scoring of the AmyE negative phenotype of the strains on LB plates containing 1% starch ([Harwood and Cutting, 1990]). Linearized plasmid DNA of pCA-opuARA was used to transform the B. subtilis chassis strain TMB118 [Δ(opuA::tet)3 Δ(opuC::spc)3 Δ(opuD::neo)2 Δ(opuB::erm)3] ([Teichmann et al., 2017]) in which only the proline-specific osmostress OpuE transporter ([von Blohn et al., 1997]) is present. The resulting strain was CAB2 (Supplementary Table S1). B. subtilis mutants carrying chromosomal deletions of the yvaV and opcR genes were constructed using long-flanking region PCR ([Kuwayama et al., 2002]).

SMILES	Osmostress protection (growth yield OD578)	Substrate of / import via the B. infantis OpuA transporter
CN(C)CC(=O)O [DMG, dimethlyglycine]	at a reduced level	
C[S+](C)CCC(=O)[O-] [DMSP, dimethylsulfoniopropionate]	protected	good substrate
C[N+](C)(C)CCO [choline]		not imported; also recorded: not a substrate
C[N+](C)(C)CC(=O)[O-] [glycine betaine]	protected	major substrates
C[N+](C)(C)CCC(=O)[O-] [homobetaine]	protected	
C[N+]1(C)CCC[C@H]1C(=O)[O-] [proline betaine]	protected	major substrates
